Consider 1 compound from paper PMC7912279, “Preclinical Evaluation of ^99mTc-Labeled GRPR Antagonists maSSS/SES-PEG2-RM26 for Imaging of Prostate Cancer” (Pharmaceutics, 2021).

A short description of series [1]: Octanol-water distribution coefficient (logD). In kind it is physicochemical. As to conditions: determined as previously described [35]. The protocol:
To test the stability, the radiolabeled peptides were incubated with 300× molar excess of cysteine or with PBS at room temperature for 1 h. The octanol-water distribution coefficient (logD) was determined as previously described.

Series [2] has as its system PC-3 xenografts. The experiment in a line: Biodistribution in tumor bearing mice. In kind it is in vivo. As to conditions: BALB/c nu/nu mice bearing PC-3 xenografts, 3 h pi. On the procedure:
Animals: All in vivo experiments were carried out on BALB/c nu/nu or NMRI mice provided by Scanbur A/S (Sollentuna, Sweden). All animal studies were approved by the Ethics Committee for Animal Research in Uppsala (Sweden), following the national legislation on the protection of laboratory animals (project identification code of approval 5/16, 26 February 2016). Prostate cancer xenografts expressing GRPR were established in BALB/c nu/nu mice by subcutaneous injection of PC-3 cell suspension in PBS (7 × 10^6 cells in 100 µL) four weeks before the experiment. Four to seven mice per data point were used in in vivo experiments, two mice per data point were used in metabolic analysis and SPECT/CT imaging experiments.
Biodistribution in tumor bearing mice: The comparison of biodistribution between the two radiolabeled peptides was evaluated in BALB/c nu/nu mice bearing PC-3 xenografts. Each mouse was injected with 40 pmol (30 kBq, mass of injected peptide was adjusted with unlabeled peptide) of either [^99mTc]Tc-maSSS-PEG2-RM26 or [^99mTc]Tc-maSES-PEG2-RM26. The mice were euthanized 3 h pi. Sample collection and activity measurements were done as described above. The biodistribution of [^99mTc]Tc-maSSS-PEG2-RM26 was further studied at 6 h pi following the same protocol. Additionally for [^99mTc]Tc-maSSS-PEG2-RM26, one group of xenograft bearing mice was injected with 40 pmol (30 kBq, mass of injected peptide was adjusted with unlabeled peptide) of labeled peptide with 5 nmol of unlabeled peptide and euthanized 3 h pi.

Where [3] appears, read: 40 pmol (30 kBq), gamma counter, 4-7 mice.

In turn, `CC(C)C[C@H](NC(=O)C[C@H](O)[C@H](CC(C)C)NC(=O)[C@H](Cc1c[nH]cn1)NC(=O)CNC(=O)[C@@H](NC(=O)[C@H](C)NC(=O)[C@H](Cc1c[nH]c2ccccc12)NC(=O)[C@H](CCC(N)=O)NC(=O)[C@@H](Cc1ccccc1)NC(=O)COCCOCCNC(=O)[C@H](CO)NC(=O)[C@H](CCC(=O)O)NC(=O)[C@H](CO)NC(=O)CS)C(C)C)C(N)=O` [[^99mTc]Tc-maSES-PEG2-RM26, metal not drawn] had a logD in series [1] of -1.0. For the same compound, in series [2] (setting [3]), the “uptake, Blood” value was found to be 0.15 ± 0.07 % IA/g; the “uptake, Bone” value worked out at 0.04 ± 0.02 % IA/g; the “uptake, GI (gastrointestinal tract with content)” value is 46 ± 4 % IA; the “uptake, Intestine” value is recorded as 1.1 ± 0.6 % IA/g. In series [2] (setting [3]), the “uptake, Kidneys” value is listed as 3 ± 2 % IA/g; the “uptake, Liver” value was 1.1 ± 0.3 % IA/g; the “uptake, Lung” value is recorded as 0.14 ± 0.07 % IA/g; the “uptake, Muscle” value came out at 0.04 ± 0.03 % IA/g. For the same compound, in series [2] (setting [3]), the “uptake, Pancreas” value is given as 2 ± 1 % IA/g; the “uptake, Spleen” value is given as 0.11 ± 0.02 % IA/g; the “uptake, Stomach” value was determined as 0.9 ± 0.4 % IA/g; the “uptake, Tumor” value is 2.9 ± 0.7 % IA/g. Besides, in series [2] (40 pmol), the “Tumor-to-non-tumor ratio, Blood” value is recorded as 26 ± 19; the “Tumor-to-non-tumor ratio, Bone” value is 84 ± 54; the “Tumor-to-non-tumor ratio, Intestine” value stood at 3 ± 2; the “Tumor-to-non-tumor ratio, Kidneys” value stood at 2 ± 2. In series [2] (40 pmol), the “Tumor-to-non-tumor ratio, Liver” value amounted to 3.0 ± 0.8; the “Tumor-to-non-tumor ratio, Lung” value amounted to 26 ± 16; the “Tumor-to-non-tumor ratio, Muscle” value stood at 90 ± 52; the “Tumor-to-non-tumor ratio, Pancreas” value is on record as 1.5 ± 0.8. In series [2] (40 pmol), the “Tumor-to-non-tumor ratio, Spleen” value turned out to be 24 ± 10 and the “Tumor-to-non-tumor ratio, Stomach” value came to 4 ± 2.
